Starred links: 1 amine or outer side, 2 acyl side, 3 side chain; linkers in the order of their positions; H or OH if unused. Non-standard residues stand in square brackets, D forms with d. Residues, ends and D or L forms follow the SMILES beside them. No end group written: not given here. *: point of attachment. X1 = CC(C)C[C@H](NC(=O)[C@@H](N)CS*)C(=O)N[C@@H](Cc1c[nH]cn1)C(=O)N[C@@H](Cc1ccccc1)C(=O)O; NH(1-Adamantyl) = C1C2CC3CC1CC(N*)(C2)C3; MeOSuc = COC(=O)CCC(=O)*; Octanoyl = CCCCCCCC(=O)*; Cbz = O=C(OCc1ccccc1)*; CO = O=C([*:1])[*:2]; Ahx = NCCCCCC(=O)O; Sar = CNCC(=O)O
Each compound was assayed against T1, human leukocyte elastase (hLE) (Homo sapiens, UniProt P08246) (assay: In-vitro inhibition of hLE (cleavage of MeOSuc-AAPV-NA)). Settings: not given.
T1 construct: Neutrophils (1.4 billion) were isolated from whole blood obtained from a single healthy laboratory donor; from tissue; host or cells: neutrophils from whole blood of a single healthy donor
T1 sequence (P08246 30-247 limits assumed): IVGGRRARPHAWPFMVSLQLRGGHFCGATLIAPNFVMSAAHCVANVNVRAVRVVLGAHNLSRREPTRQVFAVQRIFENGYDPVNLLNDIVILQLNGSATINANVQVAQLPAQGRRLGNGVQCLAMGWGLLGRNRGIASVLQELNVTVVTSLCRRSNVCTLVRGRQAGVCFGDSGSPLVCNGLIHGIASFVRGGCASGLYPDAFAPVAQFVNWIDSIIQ
Assay type: biochemical
Experimental: (§1) The enzymatic activity was assayed with MeOSuc-AAPV-NA for hLE determination and Suc-AAPF-NA for hCG determination (both in 100 mM Hepes buffer, pH 7.4, containing 0.05% of the […] detergent Brij-35). The activities of the individual enzymatic fractions were 100% free from cross-contamination. […] The fractions containing hLE and hCG were dialyzed each against 0.1% pyridinium acetate, pH 5.3, divided into 20 aliquots, lyophilized, and stored at −20° C. until use.
Peptides were dissolved in 100 mM Hepes buffer pH 7.4 containing 0.1% Brij-35 with 10% DMSO to yield 600 μM solutions, which were used to make further dilutions with the same buffer, and 80 μL aliquots were added in duplicates to 96-well plates. The substrate, 600 or 900 μM MeOSuc-AAPV-NA in the same buffer with 5% DMSO, was added to each well in addition to the blank wells, and the plate was placed in the plate reader equilibrated to 37° C. (Dynateck MR-6000). Lyophilized aliquots of hLE were dissolved in 1600 μL of 100 mM Hepes buffer without DMSO, and 80 μL of the enzyme solution was added to the peptides and substrate to initiate the reaction. […] The final volume was 240 μL containing: 5% DMSO, 1-200 μM of peptide, 200 μM substrate, and 0.75 μg (about 25 picomol) enzyme.
For hLE, V is determined by fitting a linear equation to the first 6 time-points (10 min) of the kinetics data using the least squares method. […] From calculating the error in the slope of the equation, the relative error for Ki was deduced:
Ki={slope*(1+[S]/Km)}^−1 because Ki=[I]*{(1+[S]/Km)*(Vo/Vi−1)}^−1.
The hLE inhibitory capability of CRP-derived peptides was evaluated by inhibiting the enzymatic cleavage of MeOSuc-AAPV-NA as described in Materials and Methods (section v).

hLE inhibitory capability (in words) | Compound | Ki
– | CC[C@H](C)[C@H](NC(=O)[C@H](Cc1c[nH]cn1)NC(=O)[C@@H](NC(=O)[C@@H]1CCCN1C(=O)[C@H](C)NC(=O)[C@@H](NC(=O)[C@@H](NC(=O)[C@@H](NC(=O)CCC(=O)OC)C(C)C)[C@@H](C)O)C(C)C)C(C)C)C(=O)O [Peptide 15, MeOSuc-Val89-Thr-Val-Ala-Pro-Val-His-Ile96] (MeOSuc-VTVAPVHI-OH) | 160 ± 30 µM
– | CC[C@H](C)[C@H](NC(=O)[C@H](Cc1c[nH]cn1)NC(=O)[C@@H](NC(=O)[C@@H]1CCCN1C(=O)[C@H](C)NC(=O)[C@@H](NC(=O)[C@@H](NC(=O)[C@@H](NC(=O)NC12CC3CC(CC(C3)C1)C2)C(C)C)[C@@H](C)O)C(C)C)C(C)C)C(=O)O [Peptide 17, Adamantyl-NH-CO-Val89-Thr-Val-Ala-Pro-Val-His-Ile96] ({NH(1-Adamantyl)-CO}-VTVAPVHI-OH) | 130 ± 15 µM
– | CCCCCCCC(=O)N[C@H](C(=O)N[C@H](C(=O)N[C@H](C(=O)N[C@@H](C)C(=O)N1CCC[C@H]1C(=O)N[C@H](C(=O)N[C@@H](Cc1c[nH]cn1)C(=O)N[C@H](C(=O)O)[C@@H](C)CC)C(C)C)C(C)C)[C@@H](C)O)C(C)C [Peptide 19, Octanoyl-Val89-Thr-Val-Ala-Pro-Val-His-Ile96] (Octanoyl-VTVAPVHI-OH) | 280 ± 25 µM
– | CC[C@H](C)[C@H](NC(=O)[C@H](Cc1c[nH]cn1)NC(=O)[C@@H](NC(=O)[C@@H]1CCCN1C(=O)[C@H](C)NC(=O)[C@@H](NC(=O)[C@@H](NC(=O)[C@@H](NC(=O)OCc1ccccc1)C(C)C)[C@@H](C)O)C(C)C)C(C)C)C(=O)O [Peptide 20, CBz-Val89-Thr-Val-Ala-Pro-Val-His-Ile96] (Cbz-VTVAPVHI-OH) | 165 ± 35 µM
– | CC[C@H](C)[C@H](NC(=O)[C@H](Cc1c[nH]cn1)NC(=O)[C@@H](NC(=O)[C@@H]1CCCN1C(=O)[C@H](C)NC(=O)[C@@H](NC(=O)[C@@H](NC(=O)[C@@H](NC(=O)CCCCCNC(C)=O)C(C)C)[C@@H](C)O)C(C)C)C(C)C)C(=O)O [Peptide 22, Acetyl-aminocaproyl-Val89-Thr-Val-Ala-Pro-Val-His-Ile96] (Ac-[Ahx]VTVAPVHI-OH) | 210 ± 30 µM
– | CC[C@H](C)[C@H](NC(=O)[C@H](Cc1c[nH]cn1)NC(=O)[C@@H](NC(=O)[C@H]1CCCN1C(=O)[C@H](C)NC(=O)[C@@H](NC(=O)[C@@H](NC(=O)[C@@H](N)C(C)C)[C@@H](C)O)C(C)C)C(C)C)C(=O)O [Peptide 27, Val89-Thr-Val-Ala-(D)Pro-Val-His-Ile96] (H-VTVA[dP]VHI-OH; N-terminus and C-terminus assumed) | 560 ± 170 µM
– | CC[C@H](C)[C@H](NC(=O)[C@@H](Cc1c[nH]cn1)NC(=O)[C@H](NC(=O)[C@H]1CCCN1C(=O)[C@H](C)NC(=O)[C@@H](NC(=O)[C@@H](NC(=O)[C@@H](N)C(C)C)[C@@H](C)O)C(C)C)C(C)C)C(=O)O [Peptide 28, Val89-Thr-Val-Ala-(D)Pro-(D)Val-(D)His-Ile96] (H-VTVA[dP][dV][dH]I-OH; N-terminus and C-terminus assumed) | 2300 ± 300 µM
almost completely lost | CC[C@H](C)[C@H](NC(=O)[C@H](Cc1c[nH]cn1)NC(=O)[C@@H](NC(=O)CN(C)C(=O)[C@H](C)NC(=O)[C@@H](NC(=O)[C@@H](NC(=O)[C@@H](N)C(C)C)[C@@H](C)O)C(C)C)C(C)C)C(=O)O [Peptide 30, Val89-Thr-Val-Ala-Sarcosine-Val-His-Ile96] (H-VTVA[Sar]VHI-OH; N-terminus and C-terminus assumed) | –
No significant inhibition | Asn160-Met-Trp-Asp-Phe-Val165 [reference compound] | –
No significant inhibition | Asp70-Ile-Gly-Tyr-Ser74 [reference compound] | –
No significant inhibition | Asp112-Gly-Lys-Pro-Arg-Val-Arg-Lys119 [reference compound] | –
No significant inhibition | Gln203-Leu-Trp-Pro206 [reference compound] | –
No significant inhibition | Phe84-Glu-Val-Pro-Glu-Val-Thr90 [reference compound] | –
No significant inhibition | Ser18-Tyr-Val-Ser-Leu-Lys23 [reference compound] | –
No significant inhibition | Thr76-Val-Gly-Gly-Ser80 [reference compound] | –
No significant inhibition | Thr200-Lys-Pro-Gln-Leu-Trp-Pro206 [reference compound] | –
– | VTVAPVHIP-NH2 [Peptide 12, Val89-Thr-Val-Ala-Pro-Val-His-Ile96-Pro-NH2] | 70 ± 5 µM
– | VTVAPVHIPP-NH2 [Peptide 14, Val89-Thr-Val-Ala-Pro-Val-His-Ile96-Pro-Pro-NH2] | 85 ± 10 µM
No significant inhibition | Val153-Gly-Asp-Ile-Gly-Asn-Val159 [reference compound] | –
minute | Val-Ala-Pro-Val (VAPV; printed: Val-Ala-Pro-Val) [reference compound] | –

Same assay, conditions: substrate MeOSuc-AAPV-NA, 100 mM Hepes pH 7.4, 37° C.; read-out: hLE Ki

Ki | Compound
1400 ± 500 µM | CC[C@H](C)[C@H](NC(=O)[C@H](Cc1c[nH]cn1)NC(=O)[C@@H](NC(=O)CN(C)C(=O)[C@H](C)NC(=O)[C@@H](NC(=O)[C@@H](NC(=O)[C@@H](N)C(C)C)[C@@H](C)O)C(C)C)C(C)C)C(=O)O [Peptide 30, Val89-Thr-Val-Ala-Sarcosine-Val-His-Ile96] (H-VTVA[Sar]VHI-OH; N-terminus and C-terminus assumed)
350 ± 70 µM | LEAIPMSI [Peptide 24, Leu-Glu-Ala-Ile-Pro-Met-Ser-Ile, reference compound]
1000 ± 250 µM | VAPVHI [Peptide 26, Val91-Ala-Pro-Val-His-Ile96]
900 ± 300 µM | VTVAPV [Peptide 25, Val89-Thr-Val-Ala-Pro-Val94]
200 ± 20 µM | VTVAPVSI [Peptide 9, Val89-Thr-Val-Ala-Pro-Val-Ser-Ile96]

The compounds below were run against T2, human leukocyte cathepsin G (hCG) (Homo sapiens, UniProt P08311) (assay: In-vitro inhibition of hCG (conversion of Suc-AAPF-NA)). Settings: not given.
T2 construct: Neutrophils (1.4 billion) were isolated from whole blood obtained from a single healthy laboratory donor; from tissue; host or cells: neutrophils from whole blood of a single healthy donor
T2 sequence (P08311 21-244 limits assumed): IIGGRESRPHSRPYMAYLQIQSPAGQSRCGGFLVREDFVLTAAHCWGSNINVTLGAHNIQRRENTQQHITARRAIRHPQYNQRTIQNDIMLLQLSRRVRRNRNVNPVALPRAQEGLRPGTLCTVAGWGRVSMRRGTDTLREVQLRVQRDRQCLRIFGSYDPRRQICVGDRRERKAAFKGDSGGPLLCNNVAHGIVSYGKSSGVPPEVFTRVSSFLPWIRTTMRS
Assay type: biochemical
Experimental: as §1
Similar conditions to hLE inhibition experiments ere used except the substrate: 80 μL of 1.8 mM Suc-AAPF-NA. The enzyme was issolved in 800 μL buffer, and the reaction was monitored every 6 min for 1 hour. The final volume was 240 μL containing: 5% DMSO, 1-500 μM peptide, 600 μM substrate, and 1.2 μg enzyme (about 40 picomol).
For hCG, V is determined by fitting a quadratic equation to the total kinetic data (60 min), using the least squares method and calculating V at t=0.
The inhibitory capability of several CRP-derived peptides was evaluated by inhibiting the enzymatic conversion of Suc-AAPF-NA (as described in Materials and Methods (vi) above).

hCG inhibitory capability (in words) | Compound
completely inactive | CC[C@H](C)[C@H](NC(=O)[C@H](Cc1c[nH]cn1)NC(=O)[C@@H](NC(=O)[C@@H]1CCCN1C(=O)[C@H](C)NC(=O)[C@@H](NC(=O)[C@@H](NC(=O)[C@@H](N)C(C)C)[C@@H](C)O)C(C)C)C(C)C)C(=O)N[C@@H](CSSC[C@H](N)C(=O)N[C@@H](CC(C)C)C(=O)N[C@@H](Cc1c[nH]cn1)C(=O)N[C@@H](Cc1ccccc1)C(=O)O)C(=O)O [Peptide 4, Val89-Thr-Val-Ala-Pro-Val-His-Ile-Cys97-Cys36-His-Leu-Phe39] (H-VTVAPVHIC(X1)-OH)
completely inactive | CC[C@H](C)[C@H](NC(=O)[C@H](Cc1c[nH]cn1)NC(=O)[C@@H](NC(=O)[C@@H]1CCCN1C(=O)[C@H](C)NC(=O)[C@@H](NC(=O)[C@@H](NC(=O)[C@@H](NC(=O)[C@H](CCC(=O)O)NC(=O)[C@@H]1CCCN1C(=O)[C@@H](NC(=O)[C@H](CCC(=O)O)NC(=O)[C@H](Cc1ccccc1)NC(=O)[C@H](CC(C)C)NC(=O)[C@@H](NC(=O)[C@H](CCC(=O)O)NC(=O)[C@H](CO)NC(=O)CN)[C@@H](C)CC)C(C)C)C(C)C)[C@@H](C)O)C(C)C)C(C)C)C(=O)N[C@@H](CSSC[C@H](N)C(=O)N[C@@H](CC(C)C)C(=O)N[C@@H](Cc1c[nH]cn1)C(=O)N[C@@H](Cc1ccccc1)C(=O)O)C(=O)O [Peptide 5, Gly79-Ser-Glu-Ile-Leu-Phe-Glu-Val-Pro-Glu-Val-Thr-Val-Ala-Pro-Val-His-Ile-Cys97-Cys36-His-Leu-Phe39] (H-GSEILFEVPEVTVAPVHIC(X1)-OH)

— US20020119917A1, “ANTI-INFLAMMATORY PEPTIDES DERIVED FROM C-REACTIVE PROTEIN” (priority 1996, published 2002)
